Assay results: publication PMC5823845 (Bioorganic & Medicinal Chemistry, 2018)
“Also recorded” adds a separate entry of the source. Read-outs that look alike come from different tables or passages of the source.

What was measured:
[1] = Stability and intrinsic clearance in cryopreserved hepatocytes; details: cynomolgus monkey
Procedure: (§1) Reactions were terminated by addition of 100 μL of acetonitrile containing carbamazepine as the analytical internal standard. Samples were centrifuged and the supernatant fractions analysed by LC-MS/MS. The instrument responses (peak heights) were referenced to the zero time-point samples (as 100%) in order to determine the percentage of compound remaining. Ln plots of the % remaining, for each compound, were used to determine the half-life for the hepatocyte incubations.

[2] = Plasma protein binding, equilibrium dialysis; type: in vitro ADME
Procedure: Equilibrium dialysis is used to determine the extent of binding of a compound to plasma proteins. A semi-permeable membrane separates a protein-containing compartment from a protein-free compartment. The system is allowed to equilibrate at 37 °C. The test compound present in each compartment is quantified by LC-MS/MS. The extent of binding is reported as a fraction unbound (fu) value which is calculated as detailed below;
fu = 1 – (PC - PF /PC). PC = Test compound concentration in protein-containing compartment. PF = Test compound concentration in the protein-free compartment.

[3] = Log D pH 7.4, octanol/buffer shake flask method
Procedure: Briefly, octanol (pre-saturated with buffer) is added to the test compound and sonicated. Buffer at pH 7.4 (presaturated with octanol) is then added to the octanol. […] The system is mixed to allow distribution of the compound between the two phases.
Log D = Log (Coct / Caq ). Where: Coct = Concentration in octanol sample (corrected for dilution) and Caq = Concentration in aqueous sample (corrected for dilution)

[4] = Beagle dogs, n = 3
Procedure: (§2) intravenous (bolus) injection at a dose level of 0.2 mg/kg. […] Intravenous doses were administered by bolus injection into a cephalic vein at a dose volume of 1 mL/kg. Oral doses were administered by gastric intubation at a dose volume of 5 mL/kg. […] Pharmacokinetic parameters were calculated using the computer program Phoenix WinNonlin version 6.3 (Pharsight Corporation, USA).

in vivo [5] = details: C57, mouse, iv, 1 mg/kg
Procedure: (§3) Blood was centrifuged to yield plasma for quantification of parent compound using UPLC-MS/MS. […] Terminal blood samples (approximately 300 μL) were subsequently taken by cardiac puncture under CO2 terminal anaesthesia. Once collected, blood samples were transferred to tubes containing 28 μL of citrate as anti-coagulant and held on ice, for <30 minutes, before centrifugation to generate plasma. Plasma samples aliquots (50 μL) were treated with four volumes of acetonitrile, containing diclofenac as analytical internal standard. Precipitated proteins were removed by centrifugation and the supernatant was analysed by UPLC-MS/MS. Pharmacokinetic parameters were determined by non-compartmental analysis using the software package PK Solutions 2.0 from Summit Research Services.

[6] = Intrinsic clearance in liver microsomes; type: in vitro ADME; details: liver microsomes, 37 °C, NADPH, 45 min, mean of 5
Procedure: The reaction is terminated by the addition of methanol. Following centrifugation, the supernatant is analyzed on the LC-MS/MS. […] The data is the mean on 5 separate experiments.
The ln peak area ratio (compound peak area/internal standard peak area) is plotted against time and the gradient of the line determined.
(see Supplementary data file for details).

[7] = C57 mice, n = 3
Procedure: as §3

[8] = Stability and intrinsic clearance in cryopreserved hepatocytes; details: human
Procedure: as §1

in vivo [9] = details: male, Beagle, dog, iv, 0.5 mg/kg
Procedure: as §2

5HT2B site = molecular target: T1, 5HT2B site (Homo sapiens, UniProt P41595); test: CEREP selectivity screen, binding assay; details: read-out: highest inhibition, 5HT2B site
T1 construct: Cerep (CRO)
T1 sequence (P41595 whole entry): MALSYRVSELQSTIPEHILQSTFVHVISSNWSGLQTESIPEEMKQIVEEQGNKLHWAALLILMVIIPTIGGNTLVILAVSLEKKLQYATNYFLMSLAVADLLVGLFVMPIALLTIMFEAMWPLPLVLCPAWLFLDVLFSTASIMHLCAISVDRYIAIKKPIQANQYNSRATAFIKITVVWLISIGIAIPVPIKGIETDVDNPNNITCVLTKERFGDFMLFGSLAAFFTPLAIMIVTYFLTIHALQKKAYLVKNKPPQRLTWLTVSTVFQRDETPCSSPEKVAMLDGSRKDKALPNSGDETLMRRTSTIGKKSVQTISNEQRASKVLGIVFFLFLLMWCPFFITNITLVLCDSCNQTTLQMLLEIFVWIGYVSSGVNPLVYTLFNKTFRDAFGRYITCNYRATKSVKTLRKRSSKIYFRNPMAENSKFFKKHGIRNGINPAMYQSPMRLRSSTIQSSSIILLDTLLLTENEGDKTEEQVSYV
Procedure: The CEREP selectivity screen was performed on the following targets:
A1, A2A, A3, α1, α2, β1, β2, AT1, AT2, BZD central, BZD periph, BB, B2, CGRP, CB1, CCK1, CCK2, D1, D2S, D3, D4.4, D5, ETA, ETB, GABA, GAL1, GAL2, PDGF, CXCR2, CCR1, TNF- α, H1, H2, MC4, MT1, M1, M2, M3, M4, M5, NK1, NK2, NK3,Y1, Y2, NTS1(NT1), δ2, κ, µ, NOP(ORL1) , PAC1(PACAP), PPARγ, PCP, EP2, EP4, IP(PGI2,), P2X, P2Y,5-HT1A, 5-HT1B, 5-HT2A, 5-HT2B, 5-HT2C, 5-HT3, 5-HT5A, 5-HT6, 5-HT7, σ, sst, GR, ER, VPAC1(VIP1), V1a, Ca^2+ channel (L), KV channel, KV channel, SKCa channel, Na^+ channel, Cl^- channel, norepinephrine transporter. dopamine transporter, 5-HT transporter.

mouse RAR alpha receptor = molecular target: T2, mouse RAR alpha receptor (Mus musculus, UniProt P11416); details: relative to the amplitude of the normalizing ATRA output
T2 sequence (P11416 183-417 limits assumed): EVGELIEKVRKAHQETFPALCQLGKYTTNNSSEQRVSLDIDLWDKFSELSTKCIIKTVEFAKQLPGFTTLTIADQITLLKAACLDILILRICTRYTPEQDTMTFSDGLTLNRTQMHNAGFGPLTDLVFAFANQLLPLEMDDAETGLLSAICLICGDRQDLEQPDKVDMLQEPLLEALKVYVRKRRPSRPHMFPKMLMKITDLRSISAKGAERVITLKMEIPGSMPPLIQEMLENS

[10] = Stability and intrinsic clearance in cryopreserved hepatocytes; details: mouse
Procedure: as §1

[11] = as above; details: rat
Procedure: as §1

COS-7 cells = test: Cytotoxicity assay (MTT) in COS-7 cells; type: cell-based; details: 50-fold multiple of EC50
Procedure: Cytotoxicity Assay: COS-7 cells were plated out on 96 well plates at a density of 8000 cells per well. […] After two days an MTT assay (Promega) was carried out according to the manufacturer’s instructions

hERG channel = molecular target: T3, hERG channel (Homo sapiens, UniProt Q12809); test: hERG binding assay, displacement of [3H]-astemizole; details: up to 10 μM
T3 construct: host or cells: HEK293 cells expressing HERG (per the cited method)
T3 sequence (Q12809 whole entry): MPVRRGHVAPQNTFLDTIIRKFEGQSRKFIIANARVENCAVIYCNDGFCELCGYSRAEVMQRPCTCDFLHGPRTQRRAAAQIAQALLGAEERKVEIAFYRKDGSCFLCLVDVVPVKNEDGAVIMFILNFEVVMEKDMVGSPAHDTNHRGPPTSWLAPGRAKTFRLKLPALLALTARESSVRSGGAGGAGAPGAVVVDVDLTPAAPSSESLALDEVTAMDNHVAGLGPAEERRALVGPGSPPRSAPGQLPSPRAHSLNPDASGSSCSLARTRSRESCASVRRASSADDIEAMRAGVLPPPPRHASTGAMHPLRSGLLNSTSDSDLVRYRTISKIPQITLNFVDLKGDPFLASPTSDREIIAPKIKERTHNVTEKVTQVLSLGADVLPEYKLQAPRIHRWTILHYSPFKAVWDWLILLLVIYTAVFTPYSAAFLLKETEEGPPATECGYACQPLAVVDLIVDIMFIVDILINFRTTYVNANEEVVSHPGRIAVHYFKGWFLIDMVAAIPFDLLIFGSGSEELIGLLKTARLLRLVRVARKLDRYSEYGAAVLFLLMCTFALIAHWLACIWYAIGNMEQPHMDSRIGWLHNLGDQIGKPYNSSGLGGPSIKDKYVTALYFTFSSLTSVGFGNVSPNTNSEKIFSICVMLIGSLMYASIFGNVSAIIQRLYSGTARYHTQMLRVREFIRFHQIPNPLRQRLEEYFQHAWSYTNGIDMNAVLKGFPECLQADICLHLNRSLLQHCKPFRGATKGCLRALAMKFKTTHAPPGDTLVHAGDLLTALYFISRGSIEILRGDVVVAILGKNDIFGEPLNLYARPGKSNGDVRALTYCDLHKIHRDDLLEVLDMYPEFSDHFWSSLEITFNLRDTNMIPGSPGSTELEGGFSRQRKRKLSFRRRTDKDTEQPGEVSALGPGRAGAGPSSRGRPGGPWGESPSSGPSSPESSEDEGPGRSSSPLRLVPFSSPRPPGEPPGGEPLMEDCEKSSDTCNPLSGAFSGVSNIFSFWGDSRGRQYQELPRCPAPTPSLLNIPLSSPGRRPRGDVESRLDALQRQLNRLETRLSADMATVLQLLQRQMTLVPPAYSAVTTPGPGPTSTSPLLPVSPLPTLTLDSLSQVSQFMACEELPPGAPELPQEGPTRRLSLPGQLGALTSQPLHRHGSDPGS
Procedure: Interaction with the hERG channel was assessed by displacement of the radioligand [^3H]-astemizole as described by Chiu et al.^3

[12] = test system: Salmonella Typhimurium (TA98, TA100, and TA1535); test: Bacterial cytotoxicity; type: cell-based; details: up to 100 μM; presence and absence of S9
Description: The results for cytotoxicity are expressed as percent of control growth (OD650). A compound with growth less than 60% of control is flagged and considered to be cytotoxic.

Solubility in water = type: physicochemical; details: as the sodium salt in water at 35 °C

CCOc1c(Cl)cc(C(=O)Nc2ccc(C(=O)O)c(C)c2)cc1OC(C)C [Compound 56, 4-(3-Chloro-4-ethoxy-5-isopropoxybenzamido)-2-methylbenzoic acid]
half-life at 1 μM [1]: > 7.5 h | half-life at 30 μM [1]: > 7.5 h | hepatocyte CLint at 1 μM [1]: < 3 µL/min/1e6 cells | hepatocyte CLint at 30 μM [1]: < 3 µL/min/1e6 cells | fraction unbound ([2]; human): 0.07 | fraction unbound ([2]; mouse): 0.09 | logD [3]: 1.8 | po F ([4]; 0.5 mg/kg iv, 1 mg/kg po): 83% | iv t1/2 ([4]; 0.5 mg/kg iv): 9.2 h | po Cmax ([4]; 1 mg/kg po): 2050 ng/mL | po Tmax ([4]; 1 mg/kg po): 0.5 h | Vd (in vivo [5]): 0.3 L/kg | clearance (in vivo [5]): 4.7 mL/min/kg | microsomal CLint ([6]; human microsomes): 5.3 µL/min/mg | microsomal CLint ([6]; mouse microsomes): 37.6 µL/min/mg | po F ([7]; 1 mg/kg iv and po, 1 mg/kg): 84% | iv t1/2 ([7]; 1 mg/kg iv): 1.9 h | po Cmax ([7]; 1 mg/kg po): 2007 ng/mL | po Tmax ([7]; 1 mg/kg po): 0.25 h | half-life at 1 μM [8]: > 7.5 h | half-life at 30 μM [8]: > 7.5 h | hepatocyte CLint at 1 μM [8]: < 3 µL/min/1e6 cells | hepatocyte CLint at 30 μM [8]: < 3 µL/min/1e6 cells | Vd (in vivo [9]): 0.66 L/kg | clearance (in vivo [9]): 2.3 mL/min/kg | inhibition at 10 µM (5HT2B site): 25% | RARα agonist type (partial / full agonist) (mouse RAR alpha receptor): full agonist | half-life at 1 μM [10]: 3.73 h | half-life at 30 μM [10]: > 5 h | hepatocyte CLint at 1 μM [10]: 12 µL/min/1e6 cells | hepatocyte CLint at 30 μM [10]: < 9 µL/min/1e6 cells | half-life at 1 μM [11]: 5.95 h | half-life at 30 μM [11]: > 7.5 h | hepatocyte CLint at 1 μM [11]: 4 µL/min/1e6 cells | hepatocyte CLint at 30 μM [11]: < 3 µL/min/1e6 cells | cytotoxicity in COS-7 cells (COS-7 cells): no cytotoxicity; also recorded: not cytotoxic | binding to hERG (hERG channel): did not show any significant binding; also recorded: no inhibition | bacterial cytotoxicity tests [12]: negative | solubility (Solubility in water): > 5000 µg/mL
